Source: patent publication US20130116263A1, “PAK INHIBITORS FOR THE TREATMENT OF CELL PROLIFERATIVE DISORDERS” (AFRAXIS, INC., priority 2011, published 2013)
Like-named read-outs stand apart in the source and are kept apart here.

How the values were obtained:
[1] = molecular target: PAK4 (Homo sapiens, UniProt O96013); experiment: Additional in vitro PAK-4 inhibition assay at ATP 10 uM and 1 mM; format: biochemical; conditions: 10 μM ATP; read-out: PAK4 IC50 (10 μM ATP)
Method: (§1) Similar in vitro PAK1 and PAK-4 inhibition assays are conducted in compounds for the treatment of cancer, but under ATP concentrations of 10 uM and 1 mM.

[2] = molecular target: PAK1 (Homo sapiens, UniProt Q13153); experiment: Additional in vitro PAK1 inhibition assay at ATP 10 uM and 1 mM; format: biochemical
Method: as §1

[3] = 10 μM ATP, read-out: PAK1 IC50 (10 μM ATP)
[4] = 1 mM ATP, read-out: PAK1 IC50 (1 mM ATP)

Sequence of PAK4 (O96013 whole entry): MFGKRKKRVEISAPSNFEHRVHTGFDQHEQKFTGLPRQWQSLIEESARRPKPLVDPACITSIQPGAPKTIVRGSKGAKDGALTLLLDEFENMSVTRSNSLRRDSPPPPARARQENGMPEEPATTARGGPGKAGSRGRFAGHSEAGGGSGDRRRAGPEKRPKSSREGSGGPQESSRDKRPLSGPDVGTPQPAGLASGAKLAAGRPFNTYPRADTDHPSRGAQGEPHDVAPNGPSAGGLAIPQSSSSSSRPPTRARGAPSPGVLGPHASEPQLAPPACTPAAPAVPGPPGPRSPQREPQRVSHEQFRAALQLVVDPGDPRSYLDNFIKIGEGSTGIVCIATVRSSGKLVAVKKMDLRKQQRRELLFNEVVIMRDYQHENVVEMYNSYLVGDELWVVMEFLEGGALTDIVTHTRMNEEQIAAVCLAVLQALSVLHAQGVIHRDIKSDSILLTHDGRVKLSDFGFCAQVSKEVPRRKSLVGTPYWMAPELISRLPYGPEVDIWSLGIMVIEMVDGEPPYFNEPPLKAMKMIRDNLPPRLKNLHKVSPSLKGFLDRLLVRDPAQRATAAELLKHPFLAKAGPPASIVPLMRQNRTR
Sequence of PAK1 (Q13153 whole entry): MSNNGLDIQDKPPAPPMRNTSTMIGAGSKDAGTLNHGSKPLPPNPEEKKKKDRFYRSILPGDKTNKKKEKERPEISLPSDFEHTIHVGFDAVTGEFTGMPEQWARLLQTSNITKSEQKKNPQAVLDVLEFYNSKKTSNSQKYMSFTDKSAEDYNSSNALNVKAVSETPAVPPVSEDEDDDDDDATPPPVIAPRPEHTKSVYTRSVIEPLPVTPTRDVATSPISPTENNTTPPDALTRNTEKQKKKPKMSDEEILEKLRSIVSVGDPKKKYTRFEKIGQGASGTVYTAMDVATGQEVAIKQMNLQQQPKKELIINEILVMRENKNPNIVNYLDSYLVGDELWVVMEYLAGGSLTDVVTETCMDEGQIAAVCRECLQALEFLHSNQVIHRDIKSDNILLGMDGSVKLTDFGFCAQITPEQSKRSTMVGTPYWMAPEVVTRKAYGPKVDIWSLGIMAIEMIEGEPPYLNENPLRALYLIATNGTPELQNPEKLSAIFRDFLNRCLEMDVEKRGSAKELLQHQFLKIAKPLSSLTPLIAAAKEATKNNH

Row | Structure (SMILES) | IC50 [1] | IC50 [2, 3] | IC50 [2, 4]
1 | CCn1c(=O)c(-c2ccc(-c3noc(C)n3)cc2Cl)cc2cnc(NCCCN(C)C)nc21 | ≥ 5 µM | 0.5 to 5 µM | ≥ 5 µM
2 | Cc1nc(-c2ccc(-c3cc4cnc(NC5CCOCC5)nc4n(Cc4cccc(CCN)c4)c3=O)c(Cl)c2)no1 [drawing 339] | ≥ 5 µM | < 0.05 µM | 0.05 to 0.5 µM
3 | Cc1nc(-c2ccc(-c3cc4cnc(NC5CCOCC5)nc4n(CC(=O)NC4CCNC4)c3=O)c(Cl)c2)no1 (stereo not drawn) [drawing 346] | ≥ 5 µM | 0.05 to 0.5 µM | ≥ 5 µM
4 | Cc1nc(-c2ccc(-c3cc4cnc(NC5CCOCC5)nc4n(C4CCN(C(=O)CN)CC4)c3=O)c(Cl)c2)no1 | ≥ 5 µM | 0.05 to 0.5 µM | ≥ 5 µM
5 | Cc1nc(-c2ccc(-c3cc4cnc(NC5CCOCC5)nc4n(C4CCN(CCN)C4)c3=O)c(Cl)c2)no1 (stereo not drawn) | ≥ 5 µM | 0.05 to 0.5 µM | ≥ 5 µM
6 | CCn1c(=O)c(-c2ccc(-c3noc(C)n3)cc2Cl)cc2cnc(NCc3ccccc3)nc21 | ≥ 5 µM | 0.5 to 5 µM | ≥ 5 µM
7 | Cc1nc(-c2ccc(-c3cc4cnc(NC5CC5)nc4n(Cc4cccc(CN)c4)c3=O)c(Cl)c2)no1 | ≥ 5 µM | < 0.05 µM | 0.5 to 5 µM
8 | Cc1nc(-c2ccc(-c3cc4cnc(NC5CCOCC5)nc4n(Cc4ccccc4)c3=O)c(Cl)c2)no1 | ≥ 5 µM | 0.5 to 5 µM | ≥ 5 µM
9 | CCn1c(=O)c(-c2ccc(-c3noc(C)n3)cc2Cl)cc2cnc(N[C@@H]3C[C@H]3C)nc21 | < 0.05 µM | 0.05 to 0.5 µM | < 0.05 µM
10 | Cc1nc(-c2ccc(-c3cc4cnc(NC5CCOCC5)nc4n(CC4CCNCC4)c3=O)c(Cl)c2)no1 [drawing 340] | ≥ 5 µM | < 0.05 µM | 0.5 to 5 µM
11 | Cc1nc(-c2ccc(-c3cc4cnc(NC5CCOCC5)nc4n(CC4CCCN(C)C4)c3=O)c(Cl)c2)no1 (stereo not drawn) | ≥ 5 µM | 0.05 to 0.5 µM | ≥ 5 µM
12 | CCN1CCC(Cn2c(=O)c(-c3ccc(-c4noc(C)n4)cc3Cl)cc3cnc(NC4CCOCC4)nc32)CC1 | ≥ 5 µM | 0.05 to 0.5 µM | ≥ 5 µM
13 | Cc1nc(-c2ccc(-c3cc4cnc(NC5CCOCC5)nc4n(C4CCOC(C)(C)C4)c3=O)c(Cl)c2)no1 (stereo not drawn) | ≥ 5 µM | < 0.05 µM | 0.5 to 5 µM
14 | Cc1nc(-c2ccc(-c3cc4cnc(NC5CCOCC5)nc4n(Cc4cccc(CN)c4)c3=O)c(Cl)c2)no1 [drawing 342] | ≥ 5 µM | < 0.05 µM | 0.05 to 0.5 µM
15 | CCCCn1c(=O)c(-c2ccc(-c3noc(C)n3)cc2Cl)cc2cnc(NC3CCOCC3)nc21 | ≥ 5 µM | 0.05 to 0.5 µM | ≥ 5 µM
16 | Cc1nc(-c2ccc(-c3cc4cnc(NC5CCOCC5)nc4n(CC(=O)N4CCC(CN)CC4)c3=O)c(Cl)c2)no1 [drawing 352] | ≥ 5 µM | < 0.05 µM | ≥ 5 µM
17 | Cc1nc(-c2ccc(-c3cc4cnc(NC5CCOCC5)nc4n(CC(=O)NCCCN)c3=O)c(Cl)c2)no1 | ≥ 5 µM | < 0.05 µM | 0.5 to 5 µM
18 | CCn1c(=O)c(-c2ccc(-c3noc(C)n3)cc2Cl)cc2cnc(NC3CC3)nc21 | ≥ 5 µM | 0.05 to 0.5 µM | ≥ 5 µM
19 | CCn1c(=O)c(-c2ccc(-c3noc(C)n3)cc2Cl)cc2cnc(NCCCNC(C)=O)nc21 | ≥ 5 µM | 0.5 to 5 µM | ≥ 5 µM

Row | Structure (SMILES) | IC50 [1] | IC50 [2, 3] | IC50 [2, 4]
20 | CCn1c(=O)c(-c2ccc(-c3noc(C)n3)cc2Cl)cc2cnc(NC3(C)CC3)nc21 | ≥ 5 µM | 0.5 to 5 µM | ≥ 5 µM
21 | CCn1c(=O)c(-c2ccc(-c3noc(C)n3)cc2Cl)cc2cnc(N[C@@H]3CCO[C@@H]3N3CCN(C)CC3)nc21 | ≥ 5 µM | 0.05 to 0.5 µM | ≥ 5 µM
22 | CCn1c(=O)c(-c2ccc(-c3noc(C)n3)cc2Cl)cc2cnc(NCCC3CCN(C)CC3)nc21 [drawing 361] | ≥ 5 µM | 0.05 to 0.5 µM | ≥ 5 µM
23 | CCn1c(=O)c(-c2ccc(-c3noc(C)n3)cc2Cl)cc2cnc(N[C@H]3CC[C@H](N4CCN(C)CC4)CC3)nc21 | ≥ 5 µM | 0.5 to 5 µM | ≥ 5 µM
24 | Cc1nc(-c2ccc(-c3cc4cnc(NC5CCOCC5)nc4n(CC(=O)N4CCCC(N)C4)c3=O)c(Cl)c2)no1 (stereo not drawn) | ≥ 5 µM | 0.05 to 0.5 µM | ≥ 5 µM
25 | Cc1nc(-c2ccc(-c3cc4cnc(NC5CC5)nc4n(Cc4cccc(CN(C)C)c4)c3=O)c(Cl)c2)no1 | ≥ 5 µM | 0.05 to 0.5 µM | 0.5 to 5 µM
26 | Cc1nc(-c2ccc(-c3cc4cnc(NC5CCOCC5)nc4n(Cc4ccc(CCN)cc4)c3=O)c(Cl)c2)no1 [drawing 338] | ≥ 5 µM | < 0.05 µM | 0.5 to 5 µM
27 | CCn1c(=O)c(-c2ccc(-c3noc(C)n3)cc2Cl)cc2cnc(NCC(=O)N(C)C)nc21 | 0.05 to 0.5 µM | ≥ 5 µM | ≥ 5 µM
28 | CCn1c(=O)c(-c2ccc(-c3noc(C)n3)cc2Cl)cc2cnc(NCc3ccccn3)nc21 | ≥ 5 µM | 0.5 to 5 µM | ≥ 5 µM
29 | CCn1c(=O)c(-c2ccc(-c3noc(C)n3)cc2Cl)cc2cnc(NC3CCNC3=O)nc21 (stereo not drawn) | ≥ 5 µM | ≥ 5 µM | ≥ 5 µM
30 | CCn1c(=O)c(-c2ccc(-c3noc(C)n3)cc2Cl)cc2cnc(NC3CCCC3)nc21 | 0.5 to 5 µM | 0.5 to 5 µM | ≥ 5 µM
31 | CCn1c(=O)c(-c2ccc(-c3noc(C)n3)cc2Cl)cc2cnc(NC3CCN(C)C3=O)nc21 (stereo not drawn) | ≥ 5 µM | ≥ 5 µM | ≥ 5 µM
32 | CCn1c(=O)c(-c2ccc(-c3noc(C)n3)cc2Cl)cc2cnc(NC3CC3c3ccccc3)nc21 (stereo not drawn) | 0.5 to 5 µM | 0.5 to 5 µM | 0.5 to 5 µM
33 | Cc1nc(-c2ccc(-c3cc4cnc(NC5CCOCC5)nc4n(Cc4ccc(CN)cc4)c3=O)c(Cl)c2)no1 [drawing 341] | ≥ 5 µM | < 0.05 µM | 0.05 to 0.5 µM
34 | CCn1c(=O)c(-c2ccc(-c3noc(C)n3)cc2Cl)cc2cnc(NCC(=O)NC)nc21 | ≥ 5 µM | 0.5 to 5 µM | ≥ 5 µM
35 | CCNc1ncc2cc(-c3ccc(-c4noc(C)n4)cc3Cl)c(=O)n(CC)c2n1 | ≥ 5 µM | 0.5 to 5 µM | ≥ 5 µM
36 | Cc1nc(-c2ccc(-c3cc4cnc(N[C@H]5C[C@@H]5C)nc4n(CC4CCNCC4)c3=O)c(Cl)c2)no1 | ≥ 5 µM | < 0.05 µM | 0.5 to 5 µM
37 | Cc1nc(-c2ccc(-c3cc4cnc(NC5CCOCC5)nc4n(CC(=O)N4CCC(N)CC4)c3=O)c(Cl)c2)no1 | ≥ 5 µM | 0.05 to 0.5 µM | ≥ 5 µM

Next, values leading:

Row | IC50 [1] | IC50 [2, 3] | IC50 [2, 4] | Structure (SMILES)
38 | ≥ 5 µM | 0.05 to 0.5 µM | ≥ 5 µM | CCn1c(=O)c(-c2ccc(-c3noc(C)n3)cc2Cl)cc2cnc(NC3COC3)nc21
39 | ≥ 5 µM | 0.05 to 0.5 µM | ≥ 5 µM | Cc1nc(-c2ccc(-c3cc4cnc(NC5CCOCC5)nc4n(CC4CCN(C)CC4)c3=O)c(Cl)c2)no1
40 | 0.5 to 5 µM | 0.5 to 5 µM | ≥ 5 µM | CCn1c(=O)c(-c2ccc(-c3noc(C)n3)cc2Cl)cc2cnc(NC3COC4(CCCC4)C3)nc21 (stereo not drawn)
41 | ≥ 5 µM | 0.05 to 0.5 µM | 0.5 to 5 µM | CCN1CCC(CCNc2ncc3cc(-c4ccc(-c5noc(C)n5)cc4Cl)c(=O)n(CC)c3n2)CC1
42 | ≥ 5 µM | 0.5 to 5 µM | ≥ 5 µM | CCn1c(=O)c(-c2ccc(-c3noc(C)n3)cc2Cl)cc2cnc(NC(C)C)nc21
43 | ≥ 5 µM | 0.05 to 0.5 µM | ≥ 5 µM | Cc1nc(-c2ccc(-c3cc4cnc(NC5CCOCC5)nc4n(C4CCN(C5CCNCC5)C4)c3=O)c(Cl)c2)no1 (stereo not drawn)
44 | ≥ 5 µM | < 0.05 µM | 0.5 to 5 µM | Cc1nc(-c2ccc(-c3cc4cnc(NC5CCOCC5)nc4n(Cc4cccc(OCCN)c4)c3=O)c(Cl)c2)no1 [drawing 344]
45 | ≥ 5 µM | 0.5 to 5 µM | ≥ 5 µM | CCn1c(=O)c(-c2ccc(-c3noc(C)n3)cc2Cl)cc2cnc(NCC3CCOC3)nc21 (stereo not drawn)
46 | ≥ 5 µM | 0.5 to 5 µM | ≥ 5 µM | CCCCNc1ncc2cc(-c3ccc(-c4noc(C)n4)cc3Cl)c(=O)n(CC)c2n1
47 | ≥ 5 µM | < 0.05 µM | 0.5 to 5 µM | Cc1nc(-c2ccc(-c3cc4cnc(NC5CCNC(=O)C5)nc4n(Cc4c(F)cccc4C(F)(F)F)c3=O)c(Cl)c2)no1 (stereo not drawn) [drawing 354]
48 | ≥ 5 µM | 0.05 to 0.5 µM | ≥ 5 µM | Cc1nc(-c2ccc(-c3cc4cnc(NC5CCOCC5)nc4n(CC4CCCNC4)c3=O)c(Cl)c2)no1 (stereo not drawn)
49 | ≥ 5 µM | 0.5 to 5 µM | ≥ 5 µM | CCn1c(=O)c(-c2ccc(-c3noc(C)n3)cc2Cl)cc2cnc(NN3CCOCC3)nc21
50 | ≥ 5 µM | 0.05 to 0.5 µM | ≥ 5 µM | Cc1nc(-c2ccc(-c3cc4cnc(NC5CCOCC5)nc4n(-c4ccccc4)c3=O)c(Cl)c2)no1
51 | ≥ 5 µM | 0.5 to 5 µM | ≥ 5 µM | CCn1c(=O)c(-c2ccc(-c3noc(C)n3)cc2Cl)cc2cnc(NCc3cccnc3)nc21
52 | ≥ 5 µM | 0.5 to 5 µM | ≥ 5 µM | CCn1c(=O)c(-c2ccc(-c3noc(C)n3)cc2Cl)cc2cnc(NCC3CCOCC3)nc21
53 | ≥ 5 µM | 0.05 to 0.5 µM | ≥ 5 µM | CCn1c(=O)c(-c2ccc(-c3noc(C)n3)cc2Cl)cc2cnc(NCc3ccncc3)nc21
54 | ≥ 5 µM | 0.5 to 5 µM | ≥ 5 µM | CCn1c(=O)c(-c2ccc(-c3noc(C)n3)cc2Cl)cc2cnc(NCC3CCCO3)nc21 (stereo not drawn)
55 | ≥ 5 µM | 0.05 to 0.5 µM | ≥ 5 µM | Cc1nc(-c2ccc(-c3cc4cnc(NC5CCOCC5)nc4n(C4CCOCC4)c3=O)c(Cl)c2)no1
56 | ≥ 5 µM | 0.05 to 0.5 µM | ≥ 5 µM | CCn1c(=O)c(-c2ccc(-c3noc(C)n3)cc2Cl)cc2cnc(NC3CCOC(C)(C)C3)nc21 (stereo not drawn)
57 | ≥ 5 µM | 0.5 to 5 µM | ≥ 5 µM | CCn1c(=O)c(-c2ccc(-c3noc(C)n3)cc2Cl)cc2cnc(NC3CCC(=O)NC3)nc21 (stereo not drawn)
